Experimental data published in patent US20230285405A1, “Pharmaceuticals for Treating or Preventing Nidoviruses and Picornaviruses” (priority 2020, published 2023).
pEC50: −log10 of the molar value. Counter-ions that a name gives are not always drawn. Like-named read-outs stand apart in the source and are kept apart here.

Columns and labels:
A549-mRuby cells = assay: Drug screening: effect on cell growth (cell number day 4 / day 0); conditions: 10 μM drug; for Growth_1: number of cells at day 4 divided by number of cells at day 0 / toxic_1: repeat #1; for Growth_2: number of cells at day 4 divided by number of cells at day 0 / toxic_2: repeat #2
In short: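 Growth was scored as day 4/day 0 cell count from images of OC43-infected (MOI 0.3) A549-mRuby nuclear-reporter cells. Compounds were added at 10 μM final after a 1 h infection at 33° C, followed by 4 days of culture at 33° C in two independent screens.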

SARS-CoV-2 = assay: microbe, parasite or virus in culture; type: cell-based, SARS-CoV-2 (nCoV/Washington/1/2020)
OC43 [1] = assay: Dose-response analysis of OC43 infection; type: cell-based, human beta coronavirus OC43
Experimental: Dose-response analysis of OC43 infection was done similarly to the drug screening, except cells were seeded at a concentration of 5,000 cells per well and the media contained 2% BCS instead of 10% BCS. OC43 staining was performed 2 days after infection and analyzed similarly to what was described for the drug screening. A sigmoid fit was used to extract EC50 values using Matlab.

OC43 [2] = assay: Drug screening: OC43 nucleoprotein staining in infected A549-mRuby cells; type: cell-based, human beta coronavirus OC43; conditions: for activity at 10 µM: Betacoronavirus 1, OC43, 96 h
In short: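 Repurposing screen: drugs at 10 μM final added 1 h after OC43 infection (MOI 0.3) of H2B-mRuby A549 cells, 4-day incubation at 33° C. Cell counts imaged at day 0 and day 4; nucleoprotein staining per cell normalized to untreated infected wells, hit threshold >3 SD in duplicate screens, non-toxic.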

[3] = Severe acute respiratory syndrome coronavirus 2; read-out: EC50 SARS2
[4] = Betacoronavirus 1, OC43, 48 h, read-out: EC50 OC43, A549-mRuby cells, staining 2 days after infection
[5] = 10 μM drug, MOI 0.3, 4 days, OC43 staining normalized to no-drug controls, mean of the two screen repeats, read-out: OC43_mean
[6] = 10 μM drug, MOI 0.3, 4 days, normalized to no-drug controls in the same plate, repeat #1, read-out: OC43_1: % staining of OC43 in screen repeat #1
[7] = 10 μM drug, MOI 0.3, 4 days, normalized to no-drug controls in the same plate, repeat #2, read-out: OC43_2: % staining of OC43 in screen repeat #2
[8] = A549-mRuby cells, staining 2 days after infection, read-out: EC50 OC43
[9] = 10 μM drug, MOI 0.3, 4 days, OC43 staining normalized to no-drug controls, mean of the two screen repeats
[10] = 10 μM drug, MOI 0.3, 4 days, normalized to no-drug controls in the same plate, repeat #1
[11] = 10 μM drug, MOI 0.3, 4 days, normalized to no-drug controls in the same plate, repeat #2

Compound: CCCCOC(=O)c1ccc(N)cc1 [Butamben]
- Growth_1: number of cells at day 4 divided by number of cells at day 0 (A549-mRuby cells): 3.9
- toxic_1 (A549-mRuby cells): 0
- Growth_2: number of cells at day 4 divided by number of cells at day 0 (A549-mRuby cells): 4.7
- toxic_2 (A549-mRuby cells): 0
- pEC50 (SARS-CoV-2; [3]): < 5.00
- pEC50 (OC43 [1]; [4]): 5.51
- hit_1 (OC43 [2]; 10 μM drug, repeat #1): 1
- hit_2 (OC43 [2]; 10 μM drug, repeat #2): 1
- activity at 10 µM (OC43 [2]; [5]): 4.9%
- activity at 10 µM (OC43 [2]; [6]): 3.8%
- activity at 10 µM (OC43 [2]; [7]): 6.1%

Compound: COc1ccc2cc1Oc1ccc(cc1)C[C@H]1c3c(cc4c(c3Oc3cc5c(cc3OC)CCN(C)[C@@H]5C2)OCO4)CCN1C [Cepharanthine]
- Growth_1: number of cells at day 4 divided by number of cells at day 0 (A549-mRuby cells): 4.3
- toxic_1 (A549-mRuby cells): 0
- Growth_2: number of cells at day 4 divided by number of cells at day 0 (A549-mRuby cells): 4.7
- toxic_2 (A549-mRuby cells): 0
- pEC50 (SARS-CoV-2; [3]): 6.89
- pEC50 (OC43 [1]; [4]): 6.11
- hit_1 (OC43 [2]; 10 μM drug, repeat #1): 1
- hit_2 (OC43 [2]; 10 μM drug, repeat #2): 1
- activity at 10 µM (OC43 [2]; [5]): 20.3%
- activity at 10 µM (OC43 [2]; [6]): 28.5%
- activity at 10 µM (OC43 [2]; [7]): 12.1%

Compound: O.O=C(c1ccc(OCCN2CCCCC2)cc1)c1c(-c2ccc(O)cc2)sc2cc(O)ccc12 [Raloxifene HCl]
- Growth_1: number of cells at day 4 divided by number of cells at day 0 (A549-mRuby cells): 5.0
- toxic_1 (A549-mRuby cells): 0
- Growth_2: number of cells at day 4 divided by number of cells at day 0 (A549-mRuby cells): 5.2
- toxic_2 (A549-mRuby cells): 0
- pEC50 (SARS-CoV-2; [3]): 5.42
- pEC50 (OC43 [1]; [4]): 5.57
- hit_1 (OC43 [2]; 10 μM drug, repeat #1): 1
- hit_2 (OC43 [2]; 10 μM drug, repeat #2): 1
- activity at 10 µM (OC43 [2]; [5]): 11.7%
- activity at 10 µM (OC43 [2]; [6]): 9.4%
- activity at 10 µM (OC43 [2]; [7]): 14%

Compound: C[C@@H]1[C@H](O)[C@@H](C)/C=C/C=C/C=C/C=C/C=C/C=C/C=C/[C@H](O[C@@H]2O[C@H](C)[C@@H](O)[C@H](N)[C@@H]2O)C[C@@H]2O[C@](O)(C[C@@H](O)C[C@@H](O)[C@H](O)CC[C@@H](O)C[C@@H](O)CC(=O)O[C@H]1C)C[C@H](O)[C@H]2C(=O)O [Amphotericin B]
- Growth_1: number of cells at day 4 divided by number of cells at day 0 (A549-mRuby cells): 4.3
- toxic_1 (A549-mRuby cells): 0
- Growth_2: number of cells at day 4 divided by number of cells at day 0 (A549-mRuby cells): 5.8
- toxic_2 (A549-mRuby cells): 0
- inhibition of SARS-CoV-2 infection (in words) (SARS-CoV-2): did not inhibit SARS-CoV-2 infection
- pEC50 (SARS-CoV-2; read-out: EC50 SARS2): < 6.00
- pEC50 (OC43 [1]; [8]): 7.40
- OC43_mean (OC43 [2]; [9]): 6.6%
- OC43_1: % staining of OC43 in screen repeat #1 (OC43 [2]; [10]): 1.5%
- OC43_2: % staining of OC43 in screen repeat #2 (OC43 [2]; [11]): 11.8%
- hit_1 (OC43 [2]; 10 μM drug, repeat #1): 1
- hit_2 (OC43 [2]; 10 μM drug, repeat #2): 1

Compound: CNCCC=C1c2ccccc2CCc2ccccc21.O [Nortriptyline hydrochloride]
- Growth_1: number of cells at day 4 divided by number of cells at day 0 (A549-mRuby cells): 4.2
- toxic_1 (A549-mRuby cells): 0
- Growth_2: number of cells at day 4 divided by number of cells at day 0 (A549-mRuby cells): 3.1
- toxic_2 (A549-mRuby cells): 0
- pEC50 (SARS-CoV-2; Severe acute respiratory syndrome coronavirus 2, read-out: EC50 SARS2): 5.49
- pEC50 (OC43 [1]; [4]): 5.12
- hit_1 (OC43 [2]; 10 μM drug, repeat #1): 1
- hit_2 (OC43 [2]; 10 μM drug, repeat #2): 1
- activity at 10 µM (OC43 [2]; [5]): 19.6%
- activity at 10 µM (OC43 [2]; [6]): 25.2%
- activity at 10 µM (OC43 [2]; [7]): 14%

Compound: CN(C)CCCN1c2ccccc2CCc2ccccc21.O [Imipramine HCl]
- Growth_1: number of cells at day 4 divided by number of cells at day 0 (A549-mRuby cells): 4.0
- toxic_1 (A549-mRuby cells): 0
- Growth_2: number of cells at day 4 divided by number of cells at day 0 (A549-mRuby cells): 4.2
- toxic_2 (A549-mRuby cells): 0
- pEC50 (OC43 [1]; [4]): 5.22
- hit_1 (OC43 [2]; 10 μM drug, repeat #1): 1
- hit_2 (OC43 [2]; 10 μM drug, repeat #2): 1
- activity at 10 µM (OC43 [2]; [6]): 6.7%
- activity at 10 µM (OC43 [2]; [7]): 22.3%
- activity at 10 µM (OC43 [2]; read-out: OC43_mean, 10 μM drug, MOI 0.3, 4 days, OC43 staining normalized to no-drug controls, mean of the two screen repeats): 14.5%

Compound: CCC(CC)COC(=O)[C@H](C)N[P@](=O)(OC[C@H]1O[C@@](C#N)(c2ccc3c(N)ncnn23)[C@H](O)[C@@H]1O)Oc1ccccc1 [Remdesivir]
- pEC50 (SARS-CoV-2; [3]): 7.00
- pEC50 (OC43 [1]; [8]): 6.02
- pEC50 (OC43 [1]; Betacoronavirus 1, OC43, 48 h, A549-mRuby cells, staining 2 days after infection, read-out: EC50 OC43): 6.05

Compound: CC(CN(C)C)CN1c2ccccc2CCc2ccccc21 (stereo not drawn) [Trimipramine maleate]
- pEC50 (SARS-CoV-2; [3]): 5.82
- pEC50 (OC43 [1]; [4]): 5.42

Compound: O=C(O)CCC(=O)O.O=C(O[C@H]1CN2CCC1CC2)N1CCc2ccccc2[C@@H]1c1ccccc1 [Solifenacin succinate]
- Growth_1: number of cells at day 4 divided by number of cells at day 0 (A549-mRuby cells): 5.0
- toxic_1 (A549-mRuby cells): 0
- Growth_2: number of cells at day 4 divided by number of cells at day 0 (A549-mRuby cells): 5.0
- toxic_2 (A549-mRuby cells): 0
- pEC50 (SARS-CoV-2; [3]): 5.44
- pEC50 (OC43 [1]; Betacoronavirus 1, OC43, 48 h, read-out: EC50 OC43): 5.32
- hit_1 (OC43 [2]; 10 μM drug, repeat #1): 1
- hit_2 (OC43 [2]; 10 μM drug, repeat #2): 1
- activity at 10 µM (OC43 [2]; read-out: OC43_1: % staining of OC43 in screen repeat #1): 13%
- activity at 10 µM (OC43 [2]; read-out: OC43_2: % staining of OC43 in screen repeat #2): 11.3%
- activity at 10 µM (OC43 [2]; read-out: OC43_mean): 12.1%

Compound: Velpatasvir
- Growth_1: number of cells at day 4 divided by number of cells at day 0 (A549-mRuby cells): 6.2
- toxic_1 (A549-mRuby cells): 0
- Growth_2: number of cells at day 4 divided by number of cells at day 0 (A549-mRuby cells): 5.6
- toxic_2 (A549-mRuby cells): 0
- pEC50 (SARS-CoV-2; read-out: EC50 SARS2): < 5.00
- pEC50 (OC43 [1]; [8]): 5.70
- OC43_mean (OC43 [2]; [9]): 18.0%
- OC43_1: % staining of OC43 in screen repeat #1 (OC43 [2]; [10]): 26.0%
- OC43_2: % staining of OC43 in screen repeat #2 (OC43 [2]; [11]): 10.0%
- hit_1 (OC43 [2]; 10 μM drug, repeat #1): 1
- hit_2 (OC43 [2]; 10 μM drug, repeat #2): 1

Compound: Cc1ccc(O)c([C@H](CCN(C(C)C)C(C)C)c2ccccc2)c1.O=C(O)C(O)C(O)C(=O)O [Tolterodine tartrate]
- Growth_1: number of cells at day 4 divided by number of cells at day 0 (A549-mRuby cells): 5.0
- toxic_1 (A549-mRuby cells): 0
- Growth_2: number of cells at day 4 divided by number of cells at day 0 (A549-mRuby cells): 5.1
- toxic_2 (A549-mRuby cells): 0
- pEC50 (OC43 [1]; [4]): 5.15
- hit_1 (OC43 [2]; 10 μM drug, repeat #1): 1
- hit_2 (OC43 [2]; 10 μM drug, repeat #2): 1
- activity at 10 µM (OC43 [2]; [5]): 16.6%
- activity at 10 µM (OC43 [2]; [6]): 21.7%
- activity at 10 µM (OC43 [2]; [7]): 11.6%

Compound: Erythromycin Cyclocarbonate
- Growth_1: number of cells at day 4 divided by number of cells at day 0 (A549-mRuby cells): 5.7
- toxic_1 (A549-mRuby cells): 0
- Growth_2: number of cells at day 4 divided by number of cells at day 0 (A549-mRuby cells): 6.0
- toxic_2 (A549-mRuby cells): 0
- pEC50 (OC43 [1]; [8]): < 5.00
- OC43_mean (OC43 [2]; [9]): 18.9%
- OC43_1: % staining of OC43 in screen repeat #1 (OC43 [2]; [10]): 16.7%
- OC43_2: % staining of OC43 in screen repeat #2 (OC43 [2]; [11]): 21.1%
- hit_1 (OC43 [2]; 10 μM drug, repeat #1): 1
- hit_2 (OC43 [2]; 10 μM drug, repeat #2): 1

Compound: OCCN1CCN(CC/C=C2/c3ccccc3Sc3ccc(C(F)(F)F)cc32)CC1 [Flupenthixol dihydrochloride]
- pEC50 (SARS-CoV-2; read-out: EC50 SARS2): 6.25
- pEC50 (OC43 [1]; read-out: EC50 OC43): 5.74

Compound: CC[C@H]1OC(=O)[C@H](C)[C@@H](O[C@H]2C[C@@](C)(OC)[C@@H](O)[C@H](C)O2)[C@H](C)[C@@H](O[C@@H]2O[C@H](C)C[C@H](N(C)C)[C@H]2O)[C@](C)(O)C[C@@H](C)CN(C)[C@H](C)[C@@H](O)[C@]1(C)O [Azithromycin]
- Growth_1: number of cells at day 4 divided by number of cells at day 0 (A549-mRuby cells): 4.0
- Growth_2: number of cells at day 4 divided by number of cells at day 0 (A549-mRuby cells): 4.4
- OC43_mean (OC43 [2]; [9]): 23.4%
- OC43_1: % staining of OC43 in screen repeat #1 (OC43 [2]; [10]): 20.4%
- OC43_2: % staining of OC43 in screen repeat #2 (OC43 [2]; [11]): 26.4%
